One may read the EC50 as the midpoint of the concentration-response curve. Broadly, the IC50 is the concentration at which inhibition is half-maximal.

Eight molecules from patent US12478607B2, “Compounds useful for inhibiting BFL1 and their use in therapy” (CHILDREN'S HOSPITAL MEDICAL CENTER, priority 2019, dated 2025) can be followed below.

For data set [1], the target named is T1, BCL2A1 (A1) (Mus musculus (Mouse), UniProt Q07440). As to the kind of experiment: single high-dose fluorescence polarization (FP) assay, BCL2A1-NOXA interaction. Type of data set: binding, murine. Conditions: 100 μM compound, 3 μM A1, 375 nM labeled mNOXA. The method, then: (§1) These assays were carried out using fluorescently labeled NOXA peptide which binds within the BH3-binding groove. The FP assay measures the tumbling rate of the labeled NOXA peptide as a proxy for inhibition of BH3 binding using a competition-based approach. When NOXA is bound to BCL2A1, its rate of tumbling is low (and FP is high), whereas an effective inhibitor compound will displace NOXA, causing a fast rate of tumbling (and low FP value). The initial single high dose assay was performed with each compound using […] with BCL2A1 and FITC-NOXA, to observe the relative inhibition of the BCL2A1-NOXA interaction. Small molecules that deviated by three or more standard deviations from the control mean towards inhibition of binding were selected for further analysis. These compounds and any that were three standard deviations or more above the thermal shift controls in the DSF assays were tested in an FP dose-response experiment. […] The average thermal shift (Tm shift) in the DSF assay, along with the percentage of bound Noxa peptide from the single high dose FP assay are given below in Table 2 for each of these compounds. The first two compounds in Table 2 are reference compounds.
T1 sequence (Q07440 whole entry): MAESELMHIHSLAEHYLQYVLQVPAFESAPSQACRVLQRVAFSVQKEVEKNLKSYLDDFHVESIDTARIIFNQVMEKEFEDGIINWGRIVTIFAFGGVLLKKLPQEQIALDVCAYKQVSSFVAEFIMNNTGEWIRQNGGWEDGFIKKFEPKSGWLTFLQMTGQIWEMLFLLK
(§2) Compounds were additionally tested for specificity of binding by displacement of FITC-labeled mouse NOXA (mNoxa; Peptide 2.0) peptide via fluorescence polarization assay (FP). FP assays were performed in two steps: single-point high-concentration compounds and dose response of fluorescence polarization hits. A1 was added at 3 μM to 100 μM of each compound in 20 mM Tris pH 7, 500 mM NaCl, 0.005% Tween-20 buffer. After addition of 375 nM labeled mNOXA, 96-well plates were incubated overnight at 20° C. in the dark to achieve equilibrium before fluorescence polarization was measured with a Biotek Synergy H2. Autofluorescent compounds and fluorescent quenching compounds were corrected via ratiometric correction as described by Shapiro et al., 2009.
In general terms: In fluorescence polarisation assays a small probe gives low polarisation when free and higher when bound to something large.

For data set [2], the system named is wild-type activated primary murine T cells (splenocytes). As to the kind of experiment: in vitro apoptosis assay, wild-type activated primary murine T cells. It counts as cell-based. The note with it: Mus musculus, T-cell, 24 hours, trypan blue live/dead count. The source says:
(§3) We further tested the biological activity of the compounds using an in vitro apoptosis assay. Primary murine splenocyte cells were used as the model system. Single cell suspensions were generated from the spleens of either wild-type (WT) mice or mice having a genetic “knock-out” of the Bax and Bak genes, resulting in Bax/Bak deficient mice (Bax/Bak KO) which lack the core machinery of the intrinsic apoptotic pathway. Mice deficient in Bax/Bak are unable to undergo intrinsic apoptosis due to the lack of the pro-apoptotic Bax and Bak proteins in the pathway.
(§4) Purified cells were cultured on anti-CD3 coated (3 μg/mL, coated overnight, Biolegend, San Diego, CA) six-well plates in the presence of soluble anti-CD28 (2 μg/mL, Bio X Cell, West Lebanon, NH) and IL-2 (10 ng/mL, R&D Systems, Inc., Minneapolis, MN) in RPMI media (Life Technologies, Carlsbad, CA) for 24 hours at 37° C. Cells were then washed and cultured again in IL-2 (10 ng/mL) for 24 hours at 37° C. Cells were harvested and cultured for 24 hours on anti-CD3 coated 96-well plates at 500,000 cells per well with 2 μg/mL soluble anti-CD28, 10 ng/mL IL-2, 0.125 μg purified anti-mouse FasL (Biolegend, San Diego, CA), and varying concentrations of inhibitor compounds. Cells were then harvested and live and dead cells enumerated by trypan blue staining using the TC20 automated cell counter (Bio-Rad Laboratories, Des Plaines, IL).

The target in a further data set is BCL2A1 (purified A1) (Mus musculus (Mouse), UniProt Q07440). As to the kind of experiment: differential scanning fluorimetry (DSF) thermal shift assay. It counts as binding, murine. The note with it: 100 μM compound, 4.4 μM A1, triplicate; for ΔTm at 100 µM: read-out: Average Tm Shift. The text has this:
Thermal shift assays and fluorescence polarization competition assays were used to identify compounds that bind to BCL2A1/BFL1. Compounds were first tested for binding to BCL2A1 using differential scanning fluorimetry (DSF) thermal shift assays. DSF measures the midpoint temperature (Tm) for thermal denaturation of proteins; typically ligand binding stabilizes the protein fold, resulting in an increased Tm. During DSF experiments, all compounds that contributed to an increase in Tm that corresponded to at least three standard deviations from the mean were included in further assays.
100 μM of each compound was applied to purified A1 at 4.4 μM in triplicate. Sypro Orange dye was added at a final dilution of 1:1000 to protein- and compound-containing wells. An Applied Biosystems StepOnePlus was used to perform Differential Scanning Fluorimetry (DSF) by elevating the temperature from 20° C. to 99° C. and measuring fluorescence at every half degree C. Melting temperature was recorded as the maximum of the first derivative, indicating half of the protein population was unfolded.
A general note: DSF heats the sample and reads unfolding from a dye or from intrinsic fluorescence.

Data set [3] addresses T1, BCL2A1 (A1). The data set can be described thus: dose-response fluorescence polarization (FP) assay, displacement of FITC-labeled mNOXA peptide. The note with it: 3 μM A1, 375 nM FITC-labeled mNOXA, overnight 20° C., triplicate. Type of data set: binding, murine. The method, then: as §1, §2
Dose response curves were measured by adding 3 μM A1 to a serial two-fold dilution series of each compound ranging from 400 μM to 781 nM in 20 mM Tris pH 7, 500 mM NaCl, 0.005% Tween-20 buffer. Some compounds were further tested to assess the accuracy of these two-fold dilutions with serial 1.33-fold dilutions. A1, compounds, buffer and lastly, 375 nM FITC-labeled mNOXA were added to each well and incubated in the dark at 20° C. overnight to achieve equilibrium, followed by measurement of polarization. All dose responses were performed in triplicate.

Data set [4] concerns T cells from Bax/Bak-deficient mice (Bax/Bak KO). The data set can be described thus: in vitro apoptosis assay, Bax/Bak-deficient murine T cells. It counts as cell-based, mouse.
Source text: as §3, §4

Chain of BCL2A1 (purified A1) (Q07440 whole entry): as above

On to `CCN(CC)CC(O)CNc1ccc(C)c2sc3ccccc3c(=O)c12` (stereo not shown) [Compound 1.001], for which, on BCL2A1 (A1) [1], the “% Bound Noxa (from high-dose FP)” value was determined as 41.48%. Moreover, the 50% effective concentration (EC50) in data set [2] is roughly 3 µM; in data set [4] (Mus musculus, T-cell, Bax/Bak-deficient T cells, 24 hours, trypan blue live/dead count, read-out: EC50 of cell death) it was 20 to 30 µM. The ΔTm at 100 µM on BCL2A1 (purified A1) came out at 0.49 °C. The concentration for half-maximal inhibition (IC50) at BCL2A1 (A1) [3] came out at 49.1 µM. In addition, the “EC50 fold higher in Bax/Bak-deficient cells than in wild-type cells” value in data set [4] (Bax/Bak-deficient versus wild-type T cells) is “about 10 fold”.

Take `CCN(CC)CCNc1ccc(C)c2sc3ccccc3c(=O)c12` [Compound 1.002]: the “% Bound Noxa (from high-dose FP)” value on BCL2A1 (A1) [1] is listed as 4.5%. The ΔTm at 100 µM at BCL2A1 (purified A1) turned out to be 38.8 °C. Also, the 50% inhibitory concentration (IC50) on BCL2A1 (A1) [3] was 70.1 µM.

For `CCN(CCNc1ccc(C)c2sc3ccccc3c(=O)c12)CC(C)(C)O` [Compound 1.003], on BCL2A1 (A1) [1], the “% Bound Noxa (from high-dose FP)” value is given as 51.13%. For the same molecule, the ΔTm at 100 µM on BCL2A1 (purified A1) is -1.43 °C. The IC50 on BCL2A1 (A1) [3] was found to be 103 µM.

As to `Cc1ccc(NCCNCC(O)CO)c2c(=O)c3ccccc3sc12` (stereo not shown) [Compound 1.004], the ΔTm at 100 µM on BCL2A1 (purified A1) is -0.6 °C. In addition, the 50% inhibitory concentration (IC50) at BCL2A1 (A1) [3] was 300 µM.

Take `Cc1ccc(NCCNCC(C)(C)O)c2c(=O)c3ccccc3sc12` [Compound 1.005]: the ΔTm at 100 µM on BCL2A1 (purified A1) was -0.85 °C. In addition, the 50% inhibitory concentration (IC50) at BCL2A1 (A1) [3] turned out to be 333 µM.

Consider `O=C(COc1c(Cl)cc(Cl)c2ccccc12)NC1c2ccccc2Oc2ccccc21` [Compound 1.006], for which, on BCL2A1 (A1) [1], the “% Bound Noxa (from high-dose FP)” value is reported as 70.39%. The ΔTm at 100 µM at BCL2A1 (purified A1) is 19.2 °C. The half-maximal inhibitory concentration (IC50) on BCL2A1 (A1) [3] was 48.5 µM.

As for `Cc1cc(N=Nc2ccc(N=Nc3c(O)c(S(=O)(=O)O)cc4cc(S(=O)(=O)O)ccc34)cc2C)ccc1N=Nc1ccc2cc(S(=O)(=O)O)cc(S(=O)(=O)O)c2c1` [REF 1, reference compound], the “Average Tm Shift” value at BCL2A1 (purified A1) is 1.92 °C.

Consider `Cc1ccc(NC(=O)c2cc3ccccc3c(N=Nc3cc(S(=O)(=O)O)ccc3O)c2O)c(C)c1` [REF 2, reference compound], for which, at BCL2A1 (A1) [1], the “% Bound Noxa (from high-dose FP)” value amounted to 1.2%. Moreover, the “Average Tm Shift” value at BCL2A1 (purified A1) is −30.75 °C.
